In patent US9840498B2, “Substituted quinazolin-4-one derivatives” (NOVARTIS AG, priority 2013, dated 2017):

How the values were obtained:
PI3K gamma = PI3K gamma (Homo sapiens (Human), UniProt P48736); assay: Biochemical assay for PI3Kgamma (Adapta TR-FRET format); settings: enzymatic assay
From the text: (§1) For the enzymatic assays, the preparation of PI3K gene constructs, protein expression and purification for HTS are described in WO2012/004299. […] The TR-FRET Adapta™ Universal Kinase Assay Kit was purchased from Invitrogen Corporation (Carlsbad/CA, USA) (Cat. No. PV5099). The kit contains the following reagents: Adapta Eu-anti-ADP Antibody (Europium labeled anti-ADP antibody in HEPES buffered saline, Cat. No. PV5097), Alexa Fluor® 647-labeled ADP tracer (Alexa Fluor® 647-labeled ADP tracer in HEPES buffered saline, Cat. No. PV5098), proprietary TR-FRET dilution buffer pH 7.5 (Cat. No. PV3574). PIK3CD substrate Phosphatidylinositol was obtained from Invitrogen (vesicules consisting of 2 mM PI in 50 mM HEPES pH7.5; Cat. No. PV5371). PIK3CG substrate Phosphatidylinositol-4,5-bisphosphate (PIP(4,5)2 was obtained from Invitrogen (PIP2:PS large unilamellar vesicules consisting of 1 mM PI P2: 19 mM PS in 50 mM HEPES pH7.5, 3 mM MgCl2, 1 mM EGTA; Cat. No. PV5100). Time-Resolved Fluorescence Resonance Energy Transfer (TR-FRET) is a technology based on energy transfer between two adjacent dyes, from an excited electron in one dye (the donor) to an electron of an adjacent dye (the acceptor) through resonance, then released as a photon. This energy transfer is detected by an increase in the fluorescence emission of the acceptor, and a decrease in the fluorescence emission of the donor. TR-FRET assays for protein kinases use a long-lifetime lanthanide Terbium or Europium chelates as the donor species which overcome interference from compound autofluorescence or light scatter from precipitated compounds, by introducing a delay after excitation by a flashlamp excitation source. Results are often expressed as a ratio of the intensities of the acceptor and donor fluorophores. The ratiometric nature of such a value corrects for differences in assay volumes between wells, as well as corrects for quenching effects due to colored compounds. The Adapta™ assay can be divided into two phases: a kinase reaction phase and an ADP detection phase. In the kinase reaction phase, all kinase reaction components are added to the well and the reaction is allowed to incubate for a set period of time specific for each kinase. After the reaction, a detection solution of Eu-labeled anti-ADP antibody, Alexa Fluor® 647-labeled ADP tracer, and EDTA (to stop the kinase reaction) are added to the assay well. ADP formed by the kinase reaction will displace the Alexa Fluor® 647-labeled ADP tracer from the antibody, resulting in a decrease in TR-FRET signal. In the presence of an inhibitor, the amount of ADP formed by the kinase reaction is reduced, and the resulting intact antibody-tracer interaction maintains a high TR-FRET signal. In the Adapta™ assay, the donor (Europium-anti-ADP antibody) is excited at 340 nm and will transfer its energy to the acceptor (Alexa Fluor® 647-labeled ADP tracer). The emission from the Alexa Fluor® 647 can be monitored with a filter centered at 665 nm because it is located between the emission peaks of the donor, which is measured at 615/620 nm. 50 nL of compound dilutions were dispensed onto white 384-well small volume polystyrene plate as described in section 2.2. Then 5 μL of PI3Kgamma and PI3Kdelta and lipid substrate (PI or PIP2:PS) followed by 5 μL of ATP (final assay volume 10 μL) are incubated at RT. […] Reactions were stopped with 5 μL of a mixture of EDTA containing the Eu-labeled anti-ADP antibody and the Alexa Fluor® 647-labeled ADP tracer in TR-FRET dilution buffer (proprietary to IVG). Plates are read 15 to 60 mins later in a Synergy2 reader using an integration time of 0.4 seconds and a delay of 0.05 seconds. […] The control for the 0% inhibition was given by the solvent vehicle of the compounds (90% DMSO in H2O). Data are analyzed using Excel fit software or Graphpad Prism. EC50 values were derived by fitting a sigmoidal dose-response curve to a plot of assay readout over inhibitor concentration. […]

PI3K delta = PI3K delta (Homo sapiens (Human), UniProt O00329); assay: Biochemical assay for PI3Kdelta (Adapta TR-FRET format); settings: enzymatic assay
From the text: as §1

PI3K delta, sequence (O00329 2-1044): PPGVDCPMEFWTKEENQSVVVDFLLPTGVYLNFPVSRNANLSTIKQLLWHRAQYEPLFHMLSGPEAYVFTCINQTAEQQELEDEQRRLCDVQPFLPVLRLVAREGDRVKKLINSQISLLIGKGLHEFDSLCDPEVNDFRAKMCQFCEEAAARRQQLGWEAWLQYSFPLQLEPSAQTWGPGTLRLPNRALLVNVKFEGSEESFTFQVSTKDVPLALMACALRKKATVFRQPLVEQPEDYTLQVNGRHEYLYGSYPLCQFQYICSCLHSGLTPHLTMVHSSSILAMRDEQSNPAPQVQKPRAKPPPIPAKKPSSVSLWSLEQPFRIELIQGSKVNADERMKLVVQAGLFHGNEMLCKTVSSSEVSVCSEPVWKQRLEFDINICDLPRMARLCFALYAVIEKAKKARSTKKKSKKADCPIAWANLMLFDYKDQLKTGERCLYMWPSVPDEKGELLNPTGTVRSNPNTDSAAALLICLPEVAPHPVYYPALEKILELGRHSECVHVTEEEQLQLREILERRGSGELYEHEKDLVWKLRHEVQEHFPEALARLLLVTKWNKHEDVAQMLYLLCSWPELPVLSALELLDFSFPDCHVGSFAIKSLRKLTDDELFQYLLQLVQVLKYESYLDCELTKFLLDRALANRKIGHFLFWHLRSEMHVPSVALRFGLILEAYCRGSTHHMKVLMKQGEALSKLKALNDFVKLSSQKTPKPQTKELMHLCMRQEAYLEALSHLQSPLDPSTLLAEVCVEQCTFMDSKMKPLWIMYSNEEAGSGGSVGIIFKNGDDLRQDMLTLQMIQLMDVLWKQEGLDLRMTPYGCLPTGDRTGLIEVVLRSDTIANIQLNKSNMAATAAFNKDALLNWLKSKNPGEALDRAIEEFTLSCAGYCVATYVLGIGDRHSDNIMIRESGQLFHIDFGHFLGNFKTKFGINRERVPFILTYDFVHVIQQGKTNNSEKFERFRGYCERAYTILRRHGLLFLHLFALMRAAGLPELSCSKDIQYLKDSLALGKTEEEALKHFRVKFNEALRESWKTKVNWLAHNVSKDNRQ
PI3K delta, sequence (P27986 461-568 partner): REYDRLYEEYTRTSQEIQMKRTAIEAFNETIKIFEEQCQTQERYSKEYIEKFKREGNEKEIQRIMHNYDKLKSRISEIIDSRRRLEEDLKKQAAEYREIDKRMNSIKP
PI3K gamma, sequence (P48736 whole entry): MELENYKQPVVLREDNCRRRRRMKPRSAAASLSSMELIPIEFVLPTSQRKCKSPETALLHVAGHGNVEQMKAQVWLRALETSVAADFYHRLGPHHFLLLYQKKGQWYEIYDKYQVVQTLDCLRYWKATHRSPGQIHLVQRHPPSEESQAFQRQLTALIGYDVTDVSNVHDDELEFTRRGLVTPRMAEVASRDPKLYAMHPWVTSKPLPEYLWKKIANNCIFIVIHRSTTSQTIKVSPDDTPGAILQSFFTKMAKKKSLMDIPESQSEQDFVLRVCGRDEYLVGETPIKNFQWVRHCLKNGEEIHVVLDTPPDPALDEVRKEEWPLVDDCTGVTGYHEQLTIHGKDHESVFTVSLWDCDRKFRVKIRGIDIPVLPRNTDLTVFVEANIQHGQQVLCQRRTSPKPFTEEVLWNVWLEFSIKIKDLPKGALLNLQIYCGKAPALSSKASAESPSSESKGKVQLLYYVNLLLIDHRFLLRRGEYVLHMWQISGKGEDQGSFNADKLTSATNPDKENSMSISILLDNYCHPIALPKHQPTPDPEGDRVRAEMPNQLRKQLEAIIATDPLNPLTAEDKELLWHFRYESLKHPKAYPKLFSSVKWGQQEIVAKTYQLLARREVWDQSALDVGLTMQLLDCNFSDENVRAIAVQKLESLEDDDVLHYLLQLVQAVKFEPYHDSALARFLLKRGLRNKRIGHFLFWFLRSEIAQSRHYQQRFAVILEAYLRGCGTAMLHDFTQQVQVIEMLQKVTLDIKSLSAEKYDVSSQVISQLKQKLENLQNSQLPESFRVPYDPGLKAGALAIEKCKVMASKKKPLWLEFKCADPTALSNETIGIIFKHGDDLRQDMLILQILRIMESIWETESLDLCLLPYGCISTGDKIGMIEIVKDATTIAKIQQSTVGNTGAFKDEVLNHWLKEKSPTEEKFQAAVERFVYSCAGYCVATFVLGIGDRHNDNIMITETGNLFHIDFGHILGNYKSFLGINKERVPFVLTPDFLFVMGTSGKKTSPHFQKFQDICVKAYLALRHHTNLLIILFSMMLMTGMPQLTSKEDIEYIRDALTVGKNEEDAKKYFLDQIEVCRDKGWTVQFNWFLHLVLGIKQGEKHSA

IC50 (PI3K gamma) [nM]	IC50 (PI3K delta) [nM]	SMILES
120	7	Cc1nc(N)nc(N2CCC[C@H]2c2nc3cccc(-c4cnn(C)c4)c3c(=O)n2-c2ccccc2)c1C#N [Example 13, (S)-2-Amino-4-methyl-6-(2-(5-(1-methyl-1H-pyrazol-4-yl)-4-oxo-3-phenyl-3,4-dihydroquinazolin-2-yl)pyrrolidin-1-yl)pyrimidine-5-carbonitrile]
330	74	Cc1ccccc1-n1c([C@@H]2CCCN2c2ncnc(N)c2C#N)nc2cccc(-c3cnn(C)c3)c2c1=O [Example 14, (S)-4-Amino-6-(2-(5-(1-methyl-1H-pyrazol-4-yl)-4-oxo-3-(otolyl)-3,4-dihydroquinazolin-2-yl)pyrrolidin-1-yl)pyrimidine-5-carbonitrile]
> 10000	> 10000	Cn1cnc(-c2cccc3nc([C@@H]4CCCN4c4ncnc(N)c4C#N)n(-c4ccccc4)c(=O)c23)c1 [Example 15, (S)-4-Amino-6-(2-(5-(1-methyl-1H-imidazol-4-yl)-4-oxo-3-phenyl-3,4-dihydroquinazolin-2-yl)pyrrolidin-1-yl)pyrimidine-5-carbonitrile]
940	21	Cc1nc(N)nc(N2CCC[C@H]2c2nc3cccc(-c4cncnc4)c3c(=O)n2-c2ccccc2)c1C#N [Example 17, (S)-2-Amino-4-methyl-6-(2-(4-oxo-3-phenyl-5-(pyrimidin-5-yl)-3,4-dihydroquinazolin-2-yl)pyrrolidin-1-yl)pyrimidine-5-carbonitrile]
390	17	Cc1ncc(-c2cccc3nc([C@@H]4CCCN4c4nc(N)nc(C)c4C#N)n(-c4ccccc4)c(=O)c23)cn1 [Example 19, (S)-2-Amino-4-methyl-6-(2-(5-(2-methylpyrimidin-5-yl)-4-oxo-3-phenyl-3,4-dihydroquinazolin-2-yl)pyrrolidin-1-yl)pyrimidine-5-carbonitrile]
270	24	COc1ccc(-c2cccc3nc([C@@H]4CCCN4c4nc(N)nc(C)c4C#N)n(-c4ccccc4)c(=O)c23)cn1 [Example 21, (S)-2-Amino-4-(2-(5-(6-methoxypyridin-3-yl)-4-oxo-3-phenyl-3,4-dihydroquinazolin-2-yl)pyrrolidin-1-yl)-6-methylpyrimidine-5-carbonitrile]

Continued, molecule first:

SMILES	IC50 (PI3K gamma) [nM]	IC50 (PI3K delta) [nM]
CO[C@H]1C[C@@H](c2nc3cccc(-c4cnn(C)c4)c3c(=O)n2-c2ccccc2)N(c2nc(N)nc3[nH]cnc23)C1 [Example 11, 2-((2S,4S)-1-(2-Amino-9H-purin-6-yl)-4-methoxypyrrolidin-2-yl)-5-(1-methyl-1H-pyrazol-4-yl)-3-phenylquinazolin-4(3H)-one]	230	45
COc1ncc(-c2cccc3nc([C@@H]4C[C@H](OC)CN4c4nc(N)nc(C)c4C#N)n(-c4ccccc4)c(=O)c23)cn1 [Example 12, 2-Amino-4-((2S,4S)-4-methoxy-2-(5-(2-methoxypyrimidin-5-yl)-4-oxo-3-phenyl-3,4-dihydroquinazolin-2-yl)pyrrolidin-1-yl)-6-methylpyrimidine-5-carbonitrile]	210	5
Cc1nc(N)nc(N2C[C@@H](O)C[C@H]2c2nc3cccc(-c4cnn(C)c4)c3c(=O)n2-c2ccccc2)c1C#N [Example 16, 2-Amino-4-((2S,4S)-4-hydroxy-2-(5-(1-methyl-1H-pyrazol-4-yl)-4-oxo-3-phenyl-3,4-dihydroquinazolin-2-yl)pyrrolidin-1-yl)-6-methylpyrimidine-5-carbonitrile]	48	7
COc1cncc(-c2cccc3nc([C@@H]4CCCN4c4nc(N)nc(C)c4C#N)n(-c4ccccc4)c(=O)c23)c1 [Example 18, (S)-2-Amino-4-(2-(5-(5-methoxypyridin-3-yl)-4-oxo-3-phenyl-3,4-dihydroquinazolin-2-yl)pyrrolidin-1-yl)-6-methylpyrimidine-5-carbonitrile]	89	14
Cc1nc(N)nc(N2CCC[C@H]2c2nc3cccc(-c4cccnc4)c3c(=O)n2-c2ccccc2)c1C#N [Example 20, (S)-2-Amino-4-methyl-6-(2-(4-oxo-3-phenyl-5-(pyridin-3-yl)-3,4-dihydroquinazolin-2-yl)pyrrolidin-1-yl)pyrimidine-5-carbonitrile]	140	15
COc1ncc(-c2cccc3nc([C@@H]4C[C@H](O)CN4c4nc(N)nc(C)c4C#N)n(-c4ccccc4)c(=O)c23)cn1 [Example 22, 2-Amino-4-((2S,4S)-4-hydroxy-2-(5-(2-methoxypyrimidin-5-yl)-4-oxo-3-phenyl-3,4-dihydroquinazolin-2-yl)pyrrolidin-1-yl)-6-methylpyrimidine-5-carbonitrile]	130	5
Cc1nc(N)nc(N2C[C@@H](O)C[C@H]2c2nc3cccc(-c4cccnc4)c3c(=O)n2-c2ccccc2)c1C#N [Example 24, 2-Amino-4-((2S,4S)-4-hydroxy-2-(4-oxo-3-phenyl-5-(pyridin-3-yl)-3,4-dihydroquinazolin-2-yl)pyrrolidin-1-yl)-6-methylpyrimidine-5-carbonitrile]	81	5
COc1cncc(-c2cccc3nc([C@@H]4C[C@H](O)CN4c4nc(N)nc(C)c4C#N)n(-c4ccccc4)c(=O)c23)c1 [Example 25, 2-Amino-4-((2S,4S)-4-hydroxy-2-(5-(5-methoxypyridin-3-yl)-4-oxo-3-phenyl-3,4-dihydroquinazolin-2-yl)pyrrolidin-1-yl)-6-methylpyrimidine-5-carbonitrile]	65	5
Cc1nc(N)nc(N2C[C@@H](O)C[C@H]2c2nc3cccc(-c4cncnc4)c3c(=O)n2-c2ccccc2)c1C#N [Example 26, 2-Amino-4-((2S,4S)-4-hydroxy-2-(4-oxo-3-phenyl-5-(pyrimidin-5-yl)-3,4-dihydroquinazolin-2-yl)pyrrolidin-1-yl)-6-methylpyrimidine-5-carbonitrile]	410	6
COc1ccc(-c2cccc3nc([C@@H]4C[C@H](O)CN4c4nc(N)nc(C)c4C#N)n(-c4ccccc4)c(=O)c23)cn1 [Example 27, 2-Amino-4-((2S,4S)-4-hydroxy-2-(5-(6-methoxypyridin-3-yl)-4-oxo-3-phenyl-3,4-dihydroquinazolin-2-yl)pyrrolidin-1-yl)-6-methylpyrimidine-5-carbonitrile]	58	10
Cc1nc(N)nc(N2C[C@@H](O)C[C@H]2c2nc3cccc(-c4cnn(CCO)c4)c3c(=O)n2-c2ccccc2)c1C#N [Example 28, 2-Amino-4-((2S,4S)-4-hydroxy-2-(5-(1-(2-hydroxyethyl)-1H-pyrazol-4-yl)-4-oxo-3-phenyl-3,4-dihydroquinazolin-2-yl)pyrrolidin-1-yl)-6-methylpyrimidine-5-carbonitrile]	21	10
CCOc1ncc(-c2c(F)ccc3nc([C@@H]4C[C@H](O)CN4c4nc(N)nc(C)c4C#N)n(-c4ccccc4)c(=O)c23)cn1 [Example 29, 2-Amino-4-((2S,4S)-2-(5-(2-ethoxypyrimidin-5-yl)-6-fluoro-4-oxo-3-phenyl-3,4-dihydroquinazolin-2-yl)-4-hydroxypyrrolidin-1-yl)-6-methylpyrimidine-5-carbonitrile]	13	4
